Assay: xn = mol fraction of the nth substance listed
Settings: 101 kPa, Liquid

CCCCCCOC(C)=O [hexyl ethanoate] + C1COCCO1
Settings | mass density [kg/m3] | speed of sound [m/s] | viscosity [mPa·s]
298.15 K, x1 = 0.0546 | 1015 | 1312 | 1.143
298.15 K, x1 = 0.1152 | 1000.7 | 1292 | 1.131
298.15 K, x1 = 0.1825 | 985.9 | 1280 | 1.119
298.15 K, x1 = 0.2572 | 970.6 | 1268 | 1.106
298.15 K, x1 = 0.3416 | 954.6 | 1256 | 1.096
298.15 K, x1 = 0.4094 | 942.8 | 1248 | 1.093
298.15 K, x1 = 0.4773 | 931.9 | 1240 | 1.088
298.15 K, x1 = 0.5836 | 916.5 | 1236 | 1.08
298.15 K, x1 = 0.7044 | 900.8 | 1236 | 1.077
298.15 K, x1 = 1 | 868.3 | 1236 | 1.071
303.15 K, x1 = 0.0546 | 1009 | 1300 | 1.076
303.15 K, x1 = 0.1152 | 994.8 | 1280 | 1.063
303.15 K, x1 = 0.1825 | 979.9 | 1268 | 1.049
303.15 K, x1 = 0.2572 | 964.6 | 1256 | 1.037
303.15 K, x1 = 0.3416 | 948.8 | 1244 | 1.026
303.15 K, x1 = 0.4094 | 937.1 | 1236 | 1.019
303.15 K, x1 = 0.4773 | 926.4 | 1228 | 1.014
303.15 K, x1 = 0.5836 | 911.1 | 1224 | 1.005
303.15 K, x1 = 0.7044 | 895.7 | 1224 | 0.997
303.15 K, x1 = 1 | 863.9 | 1216 | 0.982
308.15 K, x1 = 0.0546 | 1003.4 | 1288 | 0.987
308.15 K, x1 = 0.1152 | 988.9 | 1268 | 0.975
308.15 K, x1 = 0.1825 | 974 | 1256 | 0.962
308.15 K, x1 = 0.2572 | 958.8 | 1244 | 0.951
308.15 K, x1 = 0.3416 | 943.2 | 1232 | 0.942
308.15 K, x1 = 0.4094 | 931.7 | 1224 | 0.935
308.15 K, x1 = 0.4773 | 921.1 | 1216 | 0.93
308.15 K, x1 = 0.5836 | 906 | 1212 | 0.921
308.15 K, x1 = 0.7044 | 890.8 | 1212 | 0.913
308.15 K, x1 = 1 | 859.8 | 1196 | 0.898
313.15 K, x1 = 0.0546 | 996.8 | 1280 | 0.935
313.15 K, x1 = 0.1152 | 982.2 | 1256 | 0.924
313.15 K, x1 = 0.1825 | 967.3 | 1244 | 0.912
313.15 K, x1 = 0.2572 | 952.3 | 1232 | 0.9
313.15 K, x1 = 0.3416 | 937 | 1216 | 0.889
313.15 K, x1 = 0.4094 | 925.7 | 1208 | 0.88
313.15 K, x1 = 0.4773 | 915.2 | 1204 | 0.874
313.15 K, x1 = 0.5836 | 900.3 | 1200 | 0.864
313.15 K, x1 = 0.7044 | 885.2 | 1200 | 0.855
313.15 K, x1 = 1 | 855 | 1176 | 0.836

C1CCOC1 [tetrahydrofuran] + CCCCCCOC(C)=O
x2 = 0
Settings | mass density [kg/m3] | speed of sound [m/s] | viscosity [mPa·s]
298.15 K | 881.5 | 1268 | 0.45
303.15 K | 878.7 | 1248 | 0.439
308.15 K | 873 | 1228 | 0.429
313.15 K | 866.9 | 1212 | 0.404

C=COCCCC [1-(ethenyloxy)butane] + CCCCCCOC(C)=O
Settings | mass density [kg/m3] | speed of sound [m/s] | viscosity [mPa·s]
298.15 K, x2 = 0 | 780.2 | 1096 | 0.4
298.15 K, x2 = 0.0806 | 790.9 | 1100 | 0.44
298.15 K, x2 = 0.1668 | 801.3 | 1104 | 0.486
298.15 K, x2 = 0.2521 | 810.8 | 1112 | 0.538
298.15 K, x2 = 0.3443 | 820.3 | 1120 | 0.596
298.15 K, x2 = 0.4384 | 829.2 | 1128 | 0.657
298.15 K, x2 = 0.5392 | 838.1 | 1144 | 0.726
298.15 K, x2 = 0.644 | 846.6 | 1160 | 0.798
298.15 K, x2 = 0.7555 | 854.7 | 1180 | 0.879
298.15 K, x2 = 0.8741 | 862.1 | 1204 | 0.965
303.15 K, x2 = 0 | 774.1 | 1084 | 0.387
303.15 K, x2 = 0.0806 | 784.6 | 1088 | 0.423
303.15 K, x2 = 0.1668 | 795.1 | 1088 | 0.465
303.15 K, x2 = 0.2521 | 804.8 | 1096 | 0.508
303.15 K, x2 = 0.3443 | 814.5 | 1104 | 0.559
303.15 K, x2 = 0.4384 | 823.7 | 1112 | 0.615
303.15 K, x2 = 0.5392 | 832.8 | 1124 | 0.675
303.15 K, x2 = 0.644 | 841.3 | 1140 | 0.739
303.15 K, x2 = 0.7555 | 849.5 | 1160 | 0.812
303.15 K, x2 = 0.8741 | 857.1 | 1184 | 0.891
308.15 K, x2 = 0 | 768.2 | 1072 | 0.365
308.15 K, x2 = 0.0806 | 778.6 | 1072 | 0.398
308.15 K, x2 = 0.1668 | 789.1 | 1072 | 0.434
308.15 K, x2 = 0.2521 | 798.8 | 1076 | 0.474
308.15 K, x2 = 0.3443 | 808.7 | 1084 | 0.52
308.15 K, x2 = 0.4384 | 818.1 | 1092 | 0.567
308.15 K, x2 = 0.5392 | 827.4 | 1104 | 0.622
308.15 K, x2 = 0.644 | 836.3 | 1120 | 0.681
308.15 K, x2 = 0.7555 | 844.8 | 1140 | 0.745
308.15 K, x2 = 0.8741 | 852.7 | 1164 | 0.817
313.15 K, x2 = 0 | 763.3 | 1060 | 0.354
313.15 K, x2 = 0.0806 | 773.6 | 1056 | 0.385
313.15 K, x2 = 0.1668 | 784 | 1056 | 0.418
313.15 K, x2 = 0.2521 | 793.7 | 1060 | 0.454
313.15 K, x2 = 0.3443 | 803.6 | 1064 | 0.496
313.15 K, x2 = 0.4384 | 813 | 1072 | 0.538
313.15 K, x2 = 0.5392 | 822.3 | 1084 | 0.588
313.15 K, x2 = 0.644 | 831.2 | 1100 | 0.641
313.15 K, x2 = 0.7555 | 839.7 | 1120 | 0.7
313.15 K, x2 = 0.8741 | 847.7 | 1144 | 0.763
